# Reference: US9695155B2, “Herbicidal substituted pyrimidinyloxy benzene compounds” (E. I. DU PONT DE NEMOURS AND COMPANY, priority 2013, dated 2017)
# Key:
# barnyardgrass = test: Test A postemergence; assay type: in vivo, Echinochloa crus-galli; conditions: 0 to 100 scale where 0 is no effect and 100 is complete control; for Barnyardgrass plant response rating: 125 g ai/ha; for Plant response rating, Barnyardgrass: 500 g ai/ha
# Method in brief: (§1)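 Visual injury scored 0–100 (100 = complete control) against untreated controls about 10 days after treatment in a greenhouse. Test chemicals, formulated with surfactant in non-phytotoxic solvent, were sprayed on soil preemergence or on 2-10 cm, one- to two-leaf plants postemergence.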
# large (Lg) crabgrass [1] = test: Test A preemergence; assay type: in vivo, Digitaria sanguinalis; conditions: 0 to 100 scale where 0 is no effect and 100 is complete control; for Plant response rating, Crabgrass, Large: 125 g ai/ha; for Crabgrass, Large plant response rating: 500 g ai/ha
# Method in brief: as §1
# corn [2] = test: Test C postemergence; assay type: in vivo, Zea mays; conditions: for Plant response rating (0 to 100), Corn: 0 is no effect, 100 is complete control; for Corn plant response rating: 31 g ai/ha, 13 to 15 days; for Corn plant response rating / Plant response rating, Corn: scale 0 to 100 (0 no effect, 100 complete control)
# Method in brief: (§2)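 Preemergence: seeds sown in a loam soil–sand blend and sprayed with test chemical in a non-phytotoxic solvent mixture containing surfactant. Postemergence: plants at 2 to 18 cm (1- to 4-leaf stage) in peat-based medium, treated with the same formulation. Greenhouse 13 to 15 days, then visual rating 0 (no effect) to 100 (complete control).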
# yellow nutsedge = test: Test C postemergence; assay type: in vivo, Cyperus esculentus; conditions: for Plant response rating (0 to 100), Nutsedge, Yellow: 0 is no effect, 100 is complete control; for Nutsedge, Yellow plant response rating: 31 g ai/ha, 13 to 15 days; for Nutsedge, Yellow plant response rating / Plant response rating, Nutsedge, Yellow: scale 0 to 100 (0 no effect, 100 complete control)
# Method in brief: as §2
# large (Lg) crabgrass [3] = test: Test C postemergence; assay type: in vivo, Digitaria sanguinalis; conditions: for Plant response rating (0 to 100), Crabgrass, Large: 0 is no effect, 100 is complete control; for Crabgrass, Large plant response rating: 31 g ai/ha, 13 to 15 days; for Crabgrass, Large plant response rating / Plant response rating, Crabgrass, Large: scale 0 to 100 (0 no effect, 100 complete control)
# Method in brief: as §2
# johnsongrass = test: Test C postemergence; assay type: in vivo, Sorghum halepense; conditions: for Plant response rating (0 to 100), Johnsongrass: 0 is no effect, 100 is complete control; for Johnsongrass plant response rating: 31 g ai/ha, 13 to 15 days; for Johnsongrass plant response rating / Plant response rating, Johnsongrass: scale 0 to 100 (0 no effect, 100 complete control)
# Method in brief: as §2
# velvetleaf = test: Test A postemergence; assay type: in vivo, Abutilon theophrasti; conditions: 0 to 100 scale where 0 is no effect and 100 is complete control; for Velvetleaf plant response rating: 125 g ai/ha; for Plant response rating, Velvetleaf: 500 g ai/ha
# Method in brief: as §1
# giant foxtail = test: Test C postemergence; assay type: in vivo, Setaria faberii; conditions: for Plant response rating (0 to 100), Foxtail, Giant: 0 is no effect, 100 is complete control; for Foxtail, Giant plant response rating: 31 g ai/ha, 13 to 15 days; for Foxtail, Giant plant response rating / Plant response rating, Foxtail, Giant: scale 0 to 100 (0 no effect, 100 complete control)
# Method in brief: as §2
# corn [4] = test: Test A postemergence; assay type: in vivo, Zea mays; conditions: 0 to 100 scale where 0 is no effect and 100 is complete control; for Corn plant response rating: 125 g ai/ha; for Plant response rating, Corn: 500 g ai/ha
# Method in brief: as §1
# wheat, winter = test: Test C postemergence; assay type: in vivo, Triticum aestivum; conditions: for Plant response rating (0 to 100), Wheat: 0 is no effect, 100 is complete control; for Wheat plant response rating: 31 g ai/ha, 13 to 15 days; for Wheat plant response rating / Plant response rating, Wheat: scale 0 to 100 (0 no effect, 100 complete control)
# Method in brief: as §2
# [5] = 125 g ai/ha, postemergence, visual rating
Structure (SMILES),Barnyardgrass plant response rating (barnyardgrass),"Plant response rating, Barnyardgrass (barnyardgrass)","Plant response rating, Crabgrass, Large (large (Lg) crabgrass [1])","Crabgrass, Large plant response rating (large (Lg) crabgrass [1])","Plant response rating (0 to 100), Corn (corn [2]; 16 g ai/ha, postemergence)","Corn plant response rating (corn [2]; postemergence, visual rating)","Plant response rating, Corn (corn [2]; Postemergence, 62 g ai/ha)","Plant response rating (0 to 100), Nutsedge, Yellow (yellow nutsedge; 16 g ai/ha, postemergence)","Nutsedge, Yellow plant response rating (yellow nutsedge; postemergence, visual rating)","Plant response rating, Nutsedge, Yellow (yellow nutsedge; Postemergence, 62 g ai/ha)","Plant response rating (0 to 100), Crabgrass, Large (large (Lg) crabgrass [3]; 16 g ai/ha, postemergence)","Crabgrass, Large plant response rating (large (Lg) crabgrass [3]; postemergence, visual rating)","Plant response rating, Crabgrass, Large (large (Lg) crabgrass [3]; Postemergence, 62 g ai/ha)","Plant response rating (0 to 100), Johnsongrass (johnsongrass; 16 g ai/ha, postemergence)","Johnsongrass plant response rating (johnsongrass; postemergence, visual rating)","Plant response rating, Johnsongrass (johnsongrass; Postemergence, 62 g ai/ha)",Velvetleaf plant response rating (velvetleaf),"Plant response rating, Velvetleaf (velvetleaf)","Plant response rating (0 to 100), Foxtail, Giant (giant foxtail; 16 g ai/ha, postemergence)","Foxtail, Giant plant response rating (giant foxtail; postemergence, visual rating)",also measured
FC(F)c1cccc(Oc2ncc(Br)cn2)c1-n1cc(C(F)(F)F)cn1 [Compound 163],30,100,100,100,5,5,10,5,5,5,5,5,10,5,5,5,100,100,5,5,"Plant response rating, Corn (corn [2]; [5]): 10; Plant response rating, Nutsedge, Yellow (yellow nutsedge; [5]): 5; Plant response rating, Crabgrass, Large (large (Lg) crabgrass [3]; [5]): 10; Plant response rating, Johnsongrass (johnsongrass; [5]): 10; Plant response rating, Foxtail, Giant (giant foxtail; [5]): 10; Plant response rating, Foxtail, Giant (giant foxtail; Postemergence, 62 g ai/ha): 10; Corn plant response rating (corn [4]): 30; Plant response rating, Corn (corn [4]): 50; Plant response rating (0 to 100), Wheat (wheat, winter; 16 g ai/ha, postemergence): 0; Wheat plant response rating (wheat, winter; postemergence, visual rating): 0; Plant response rating, Wheat (wheat, winter; [5]): 5; Plant response rating, Wheat (wheat, winter; Postemergence, 62 g ai/ha): 0"
O=Cc1cccc(Oc2ncc(I)cn2)c1-n1cc(Br)cn1 [Compound 172],30,60,0,30,0,0,0,0,5,5,0,0,0,0,10,10,90,100,10,0,"Plant response rating (0 to 100), Corn (corn [2]; 8 g ai/ha, postemergence): 0; Plant response rating (0 to 100), Nutsedge, Yellow (yellow nutsedge; 8 g ai/ha, postemergence): 0; Plant response rating (0 to 100), Crabgrass, Large (large (Lg) crabgrass [3]; 8 g ai/ha, postemergence): 0; Plant response rating (0 to 100), Johnsongrass (johnsongrass; 8 g ai/ha, postemergence): 0; Plant response rating (0 to 100), Foxtail, Giant (giant foxtail; 8 g ai/ha, postemergence): 0; Plant response rating, Foxtail, Giant (giant foxtail; Postemergence, 62 g ai/ha): 5; Corn plant response rating (corn [4]): 0; Plant response rating, Corn (corn [4]): 20; Plant response rating (0 to 100), Wheat (wheat, winter; 8 g ai/ha, postemergence): 0; Plant response rating (0 to 100), Wheat (wheat, winter; 16 g ai/ha, postemergence): 0; Wheat plant response rating (wheat, winter; postemergence, visual rating): 0; Plant response rating, Wheat (wheat, winter; Postemergence, 62 g ai/ha): 0"
Fc1cccc(Oc2ncc(Cl)cn2)c1-n1cc(Cl)cn1 [Compound 177],40,100,100,100,5,5,10,0,5,5,5,5,10,5,5,5,100,100,5,10,"Plant response rating, Corn (corn [2]; [5]): 10; Plant response rating, Nutsedge, Yellow (yellow nutsedge; [5]): 10; Plant response rating, Crabgrass, Large (large (Lg) crabgrass [3]; [5]): 10; Plant response rating, Johnsongrass (johnsongrass; [5]): 10; Plant response rating, Foxtail, Giant (giant foxtail; [5]): 20; Plant response rating, Foxtail, Giant (giant foxtail; Postemergence, 62 g ai/ha): 10; Corn plant response rating (corn [4]): 40; Plant response rating, Corn (corn [4]): 70; Plant response rating (0 to 100), Wheat (wheat, winter; 16 g ai/ha, postemergence): 0; Wheat plant response rating (wheat, winter; postemergence, visual rating): 0; Plant response rating, Wheat (wheat, winter; [5]): 5; Plant response rating, Wheat (wheat, winter; Postemergence, 62 g ai/ha): 0"
